From patent US20220031719A1, “ANTIVIRAL THERAPEUTIC DRUG COMBINATIONS” (THE UNIVERSITY OF TULSA, priority 2020, published 2022) come the findings set out here.

“Also recorded” adds a separate entry of the source. Where two headings read alike, the source gives them in different places.

Common to all, as to format: cell-based
The subject of one test is h293 cells. Briefly: ATP levels by CellTiterGlo in h293 cells (inhibition assays). On the procedure:
Drugs. All drugs were obtained from Sigma except diphenhydramine (purchased commercially as 25 mg allergy tablets) and famotidine (purchased commercially as 10 mg acid controller tablets). All compounds were dissolved in ultrapure water except quinine, which was re-suspended in ethanol. Rotenone was prepared as a concentrated solution in 100% DMSO, then diluted to a working stock (125 μM) in water (final concentration 2.5 μM). 2-DG was used at a final concentration of 20 mM. Diphenhydramine and famotidine were crushed by mortar and pestle, re-suspended in H2O and rotated at room temperature for 1 h. Insoluble material (e.g., cellulose) was removed by centrifugation. […] Cigar smoke was generated from commercially available Backwoods brand containing nicotine.
Cell culture. The following immortalized cells were obtained from the American Tissue Culture Collection: H293 kidney epithelial cells, HDFs (human diploid fibroblasts immortalized by telomerase expression), and U549 lung carcinoma cells. Cells were maintained in DMEM (Fisher Scientific) supplemented with 10% fetal bovine serum (FBS; Atlas Biologicals, Fort Collins, Colo.). DMEM media contained high glucose (25 mM) and the standard amino acids as carbon sources. Cultures were maintained in a 37° C. water jacketed incubator with 5% CO2. When needed cells were removed from the plate using trypsin. It is important to note that FBS and many commercial preparations of trypsin contain glucose. Unless indicated otherwise, after removal, cells were pelleted by centrifugation (2K 4 min room temperature), aspirated, and re-suspended in the desired media. Other media used in this study were DMEM no glu (Fisher Scientific), which is identical to DMEM except it lacks glucose. L-15 media (Fisher Scientific) contains amino acids but replaces glucose with 5 mM galactose. It also lacks sodium bicarbonate (NaHCO3), which was added to the same concentration as in DMEM (44 mM) in all experiments except FIGS. 4A and 4B. Its presence is essential to buffer the media and prevent its acidification in the CO2 incubator. A DMEM type media lacking sodium bicarbonate was also generated using individual components obtained from Fisher Scientific and Sigma. This media was used for FIG. 4D, where its pH was varied by the addition of 500 mM Hepes pH 7-10 (25 mM final concentration).
Inhibition assays. In general, short term immediate effects of the indicated drugs on ATP levels were analyzed by removing growing cells from a p100 mm plate using trypsin, washing with PBS, and re-suspending in the indicated media. After counting using a hemocytometer, 25-50k cells in […] media were distributed in a 96 well white flat bottom, non-treated polystyrene assay plate. In some cases, media was supplemented by the addition of glucose (20 mM final). The plate was typically incubated for 30 min at 37° C. in a CO2 incubator to allow metabolic pathways to adapt to the media. Drugs when then added in the order and at the concentration indicated for each figure, followed by shaking (700 RPM 10 sec), and returned to the incubator. Incubation times were generally between 1 and 2 h so that direct and immediate effects on ATP production could be evaluated. In most cases samples were run in duplicate or triplicate and the standard deviation determined. FIG. 1B is a more traditional drug analysis, in that cells were seeded in a tissue culture treated 96-well plate, allowed to attach overnight, then treated with 10 μL CellTiterBlue resazurin reagent (Promega) to determine effects on viability. Plates were shaken and incubated in the dark for 1-4 h, followed by excitation at 560 nm and determination of fluorescence emitted at 590 nm using a Tecan Safire plate reader. […] Luciferase activity alone (FIG. 1C) was measured by adding 10 CellTiterGlo reagent to 100 μL DMEM media in the absence of cells. […] The luminescence was determined immediately and at later times as described above.
(In general: Cellular ATP, detected with luciferase, serves as a proxy for viable cell number.)

Another test relates to Red blood cells. Briefly: ATP levels by CellTiterGlo in red blood cells. The following applies: RBCs in DMEM containing 5 mM glucose.
Test [1] has as its system Human Diploid Fibroblasts (HDFs). The test can be described thus: ATP levels by CellTiterGlo in Human Diploid Fibroblasts. The following applies: HDFs in DMEM, in the presence of 2-DG.
Method: Cell culture. […] Cells were maintained in DMEM (Fisher Scientific) supplemented with 10% fetal bovine serum (FBS; Atlas Biologicals, Fort Collins, Colo.). DMEM media contained high glucose (25 mM) and the standard amino acids as carbon sources. Cultures were maintained in a 37° C. water jacketed incubator with 5% CO2. When needed cells were removed from the plate using trypsin. […] Unless indicated otherwise, after removal, cells were pelleted by centrifugation (2K 4 min room temperature), aspirated, and re-suspended in the desired media.
Inhibition assays. In general, short term immediate effects of the indicated drugs on ATP levels were analyzed by removing growing cells from a p100 mm plate using trypsin, washing with PBS, and re-suspending in the indicated media. After counting using a hemocytometer, 25-50k cells in 100 mL media were distributed in a 96 well white flat bottom, non-treated polystyrene assay plate. In some cases, media was supplemented by the addition of glucose (20 mM final). […] Incubation times were generally between 1 and 2 h so that direct and immediate effects on ATP production could be evaluated. In most cases samples were run in duplicate or triplicate and the standard deviation determined. […] The luminescence was determined immediately and at later times as described above.
Where [2] appears, read: h293 cells in DMEM no glucose (amino acids only), metabolic inhibitors for 1 h.
[3] abbreviates: h293 cells in DMEM with glucose, metabolic inhibitors for 1 h (2-DG 20 mM, rotenone 2.5 μM).
Where [4] appears, read: h293 cells in L-15 media (galactose instead of glucose), metabolic inhibitors.
Setting [5] is: h293 cells in L-15 media lacking NaHCO3 (acidified), 37° C. CO2 incubator.
[6] abbreviates: h293 cells in DMEM (glucose and amino acids), drug alone, short exposure (2 h), no 2-DG or rotenone.
[7] abbreviates: h293 cells in DMEM containing amino acids but lacking glucose, drug alone.
Where [8] appears, read: h293 cells in DMEM, in the presence of 2-DG (forced TCA/ETC), drug 2 h.
The mark [9] stands for this setting: h293 cells in DMEM, in the presence of rotenone (forced glycolysis), drug 2 h.
[10] abbreviates: h293 cells in L-15 media (galactose, plus NaHCO3), no glucose, drug titration.
[11] abbreviates: h293 cells in L-15 media plus glucose, drug titration.

For `O=CC[C@@H](O)[C@H](O)[C@H](O)CO` [2-DG, 2-deoxy-D-glucose], the “effect on ATP production” value in the test with h293 cells (setting [2]) is “significant inhibition”; in the test with h293 cells (setting [4]), “partially inhibited”; in the test with h293 cells (setting [5]), “sensitive”. Besides, in the test with h293 cells (setting [3]), the “effect on ATP levels” value is on record as “minimal effect on ATP levels”.
In the case of `CCN(CC)CCCC(C)Nc1ccnc2cc(Cl)ccc12` (stereo not shown) [CQ, chloroquine], the “effect on ATP production via glycolysis” value with Red blood cells is listed as “no effect on ATP production”. In addition, the “effect on ATP levels” value with h293 cells (setting [6]) is listed as “no apparent effect on ATP levels”; with h293 cells (h293 cells in DMEM no glucose with glucose added back), “minimal effect on ATP levels”; with h293 cells (setting [8]) it was “markedly reduced; also recorded: synergistic effect that dramatically reduced ATP production”; in the test with h293 cells (setting [9]), “no effect on ATP levels”; in test [1], “confirmed”. In addition, the “effect on ATP production” value is on record as “inhibited ATP production” in the test on h293 cells (setting [7]), “inhibited ATP production; also recorded: very sensitive” with h293 cells (setting [10]), “no CQ inhibition” in the test with h293 cells (setting [5]) and “prevented inhibition” in the test with h293 cells (setting [11]). Also, in the test with h293 cells (h293 cells in L-15 media plus sodium bicarbonate, 250 μM CQ), the “time course of inhibition of ATP production” value is given as “increased dramatically over time”. For the same compound, the “ATP production after order of addition” value in the test on h293 cells (h293 cells in media containing glucose treated with CQ, then 2-DG added) is given as “re-established inhibition of ATP production; also recorded: CQ inhibition is revealed in the presence of 2-DG”. In the test with h293 cells (h293 cells pre-incubated with CQ 2 h in media lacking glucose, then glucose added for 1 h), the “ATP levels after order of addition” value was “re-established ATP levels; also recorded: glucose overcomes CQ inhibition”. For the same compound, the “pH dependency of inhibition of ATP production” value in the test on h293 cells (h293 cells, 1 h in DMEM type media lacking NaHCO3 adjusted to pH 7 to 10 with 25 mM Hepes, then L-15) was “dramatic increase in CQ inhibition with increasing pH; also recorded: Increasing media pH increases ability of CQ to inhibit ATP production”. Besides, the “effect on ATP levels (CellTiterGlo)” value in the test on h293 cells (h293 cells, overnight titration, same cells as CellTiterBlue) is “clear CQ dependent decrease”.
With `CCN(CCO)CCCC(C)Nc1ccnc2cc(Cl)ccc12` (stereo not shown) [HCQ, hydroxychloroquine], the “effect on ATP production” value with h293 cells (setting [7]) is listed as “inhibited ATP production”; in the test with h293 cells (setting [10]), “inhibited ATP production; also recorded: very sensitive”; with h293 cells (setting [11]), “prevented inhibition”. The “effect on ATP levels” value with h293 cells (setting [8]) is listed as “synergistic effect that dramatically reduced ATP production”; in the test on h293 cells (setting [9]), “no effect on ATP levels”.
As for `C=C[C@H]1C[N@@]2CC[C@H]1C[C@H]2[C@H](O)c1ccnc2ccc(OC)cc12` [Quinine, quinine], the “effect on ATP levels” value in the test with h293 cells (setting [8]) is given as “much more dramatic in the presence of 2-DG”.
With `CN(C)CCOC(c1ccccc1)c1ccccc1` [diphenhydramine], the entries for the “effect on ATP levels” value with h293 cells (setting [6]) and with h293 cells (setting [8]) were “minimal effect on ATP production” and “strongly inhibited; also recorded: specifically inhibited mitochondrial ATP production”, respectively.
Consider `NC(N)=Nc1nc(CSCCC(N)=NS(N)(=O)=O)cs1` [famotidine], for which the “effect on ATP levels” value in the test on h293 cells (setting [6]) and with h293 cells (setting [8]) was “no effect on ATP production” each time.
For the compound `CN1CCCC1c1cccnc1` (stereo not shown) [nicotine], the “effect on ATP levels” value with h293 cells is recorded as “specificity for inhibiting mitochondrial ATP production”.
In the case of `C=C(C)[C@H]1Cc2c(ccc3c2O[C@@H]2COc4cc(OC)c(OC)cc4[C@@H]2C3=O)O1` [rotenone], the “effect on ATP production” value with h293 cells (setting [2]) was “complete inhibition”; with h293 cells (setting [4]) it was “completely inhibited”; in the test with h293 cells (setting [5]) it was “sensitive”. For the same compound, the “effect on ATP levels” value in the test on h293 cells (setting [3]) is reported as “no effect”.
